Measurements from US4617336A, “Acylated calixarene stabilizers” (Ciba-Geigy Corporation, priority 1985, dated 1986).
One block for each substance: values may come before it.

Experiments:
[1] = FS/BL (fluorescent sunlight/black light) exposure of polypropylene films (5 mil); details: failure = 0.5 carbonyl absorbance
From the text: The samples are exposed in a fluorescent sunlight/black light chamber until failure. Failure is taken as the hours required to reach 0.5 carbonyl absorbance by infrared spectroscopy on the exposed films.

[2] = Oven ageing of stabilized polypropylene plaques (25 mil) at 150° C., oxidative stability
Procedure: Unstabilized polypropylene powder (Hercules Profax 6501) is thoroughly blended with the indicated amount of additive. The blended materials are then milled on a two roll mill at 182° C. for 5 minutes, after which time the stabilized polypropylene is sheeted from the mill and allowed to cool. The milled polypropylene is then cut into pieces and compression molded on a hydraulic press at 220° C. and 175 psi (1.2×10^6 Pa) into 25 mil thick plaques. The plaques are then exposed to air in a force draft oven maintained at 150° C. The plaques are considered to have failed on showing the first signs of decomposition (e.g. cracking or brown edges).

[3] = Angle to break of oven aged ABS plaques (ASTM D747); design: key: NB: No break; details: additive 0.225%
Procedure: This example illustrates the stabilization of acrylonitrile-butadiene-styrene (ABS) copolymer by the compounds of this invention. The testing procedure is as follows:
The antioxidant is dissolved in toluene and emulsified in water using Triton X-100 (Rohm & Haas) as a surfactant. The resultant emulsion is mixed well with ABS copolymer containing 40% butadiene (rubber). Steam coagulation of the emulsion/latex mixture yields 40% rubber stabilized ABS crumbs which are then dried at 80° C. for 30 minutes in a fluidized bed drier. The resultant crumbs are combined with styrene-acrylonitrile pellets on a two roll mill for six minutes. The resultant 15% rubber containing ABS milled sheet is compression molded at 400° F. into 60 mil plaques which are die cut into 1"×3" specimens. The sample plaques are then oven aged at 150° C. and the angle to break is monitored (ASTM D747). This consists of applying a set load through an angle with one stationary point and one moveable point, flexing the sample. The angle is monitored for several aging periods until the specimen breaks.

[4] = Solubility in hydrocarbon solvents; format: physicochemical; details: 24° to 25° C.
Procedure: This example provides solubility data for the instant stabilizers in two hydrocarbon solvents. The indicated stabilizer is dissolved in the minimal amount of solvent at 24° to 25° C. The value range reported is percent by weight of additive in total weight of solution.

[5] = Oxidation stability of polypropylene stretched tapes (2 mil) in forced draft oven at 115° C.; details: additive 0.2%
Procedure: The oxidation stability of milled polypropylene samples (prepared as in Examples 9 and 10), containing the indicated stabilizers, is measured on stretched tapes of 2 mil thickness on exposure to air in a forced draft oven at 115° C.

[6] = additive 0.2%, no co-stabilizer

Oxidative Stability Time to Failure ([2]; additive 0.1% with 0.3% DLTDP): 340 h
Oxidative Stability Time to Failure ([2]; additive 0.3%, no co-stabilizer): 150 h
Substance: Para-[2(carbooctadecyloxy)ethyl]hydroxycalix[n]arene [Example 4]
FS/BL Test Results (Hours to Failure) ([1]; additive 0.3% by weight): 240 h
Angle to Break (Oven Aged Samples) ([3]; 0 Min at 150° C.): NB
Angle to Break (Oven Aged Samples) ([3]; 30 Min at 150° C.): NB
Angle to Break (Oven Aged Samples) ([3]; 45 Min at 150° C.): NB
Angle to Break (Oven Aged Samples) ([3]; 60 Min at 150° C.): NB
Angle to Break (Oven Aged Samples) ([3]; 120 Min at 150° C.): 55

wt/wt % Solubility in Toluene [4]: > 50 wt/wt %
Oxidative Stability Time to Failure ([2]; additive 0.1% with 0.3% DLTDP): 420 h
Oxidative Stability Time to Failure [2, 6]: 150 h
Substance: Para-[2-(carbododecyloxy)ethyl]hydroxycalix[n]arene [Example 3]
FS/BL Test Results (Hours to Failure) ([1]; additive 0.2% by weight): 230 h

Substance: Para-carbobutoxy-hydroxycalix(n)arene [Example 8]
Oxidative Stability Time to Failure ([2]; additive 0.1% with 0.3% DSTDP): 210 h
Oxidative Stability Time to Failure [2, 6]: 20 h

Oxidative Stability Time to Failure ([2]; additive 0.1% with 0.3% DSTDP): 210 h
Oxidative Stability Time to Failure [2, 6]: 30 h
Substance: Para-carbododecyloxyhydroxy-calix(n)arene [Example 5]

Oxidative Stability Time to Failure ([2]; additive 0.1% with 0.3% DSTDP): 250 h
Oxidative Stability Time to Failure [2, 6]: 30 h
Oxidative Stability Time to Failure [5]: 290 h
Substance: Para-carbooctadecyloxy-hydroxycalix(n)arene [Example 7]
